Results on five compounds are retold here after patent US7718781B2, “Hydroxypyridonate and hydroxypyrimidinone chelating agents” (The Regents of the University of California, priority 2001, dated 2010).

A short description of data set [1]: Experimental determination of water solubility (UV-Vis of saturated solution). It is filed as physicochemical. How it is done:
To attain neutral pH, a 0.01 M solution of buffer (HEPES, pKa 7.55) in 0.1 M KCl was made in its acidic form and neutralized to pH 7 with KOH. A dilute solution (of the metal complex) of known concentration was prepared and the UV-Vis spectrum acquired. The extinction coefficient (ε) at the maximum absorbance (at wavelength typically 320-360 nm) was then calculated using Beer-Lambert's law. A saturated solution of the metal complex was then prepared and the UV-Vis spectrum acquired and the maximum absorbance (at wavelength typically 320-360 nm) recorded. In cases where the saturated solution produced extremely high absorbances, the saturated solution was diluted and then the spectrum recorded. Using the known ε, the concentration of the saturated solution was then determined. […] The spectra of the complexes at pH 7 are consistent with the known ML spectra observed from spectrophotometric solution thermodynamics studies of the metal-ligand complexation reactions and indicate the absence of free ligand (note: M=metal, L=ligand).
Typically, preliminary investigation of the minimum solubility of the complexes involves dissolving a known quantity of the complex in a precise volume of solvent. The visible disappearance of particulate matter, over time or instantaneous in some cases, is indicative of complete dissolution of the complex.

A short description of data set [2]: Gd(III) formation constants / pGd (spectrophotometric titration). It is filed as physicochemical. How it is done:
The term, “pGd,” as used herein is −log10[Gd^III]free at pH=7.4, and pre-equilibrium concentrations of [L]=10 μM, [Gd^III]=1 μM.
The Bjerrum method can be used for metal complex stability measurements (pH titrations of ligand and metal+ligand). Competition titrations with DTPA can be performed to determine the stability of very stable complexes where direct pH titration methods are inappropriate. Spectrophotometric techniques can be used to monitor metal-ligand complexation reactions, which give rise to changes in the Vis/UV spectra relative to the parent metal and ligand species. With digitally-recording automated spectrophotometeric titrators, factor analysis of the Vis/UV spectra readily determined the species in solution, their individual spectra and the equilibrium constants which interrelate them.
Data for the spectrophotometric determination of formation constants for the compounds of the invention (e.g., Tren-Me2-5,4-HOPY) with gadolinium are generally collected over a pH range of 2-8.
The formation constants are defined by eq 3:
The spectrophotometric data is refined using a model. […]
The pGd values are defined by eq 4: pGd=−log[Gd]free at pH 7.4 for [Gd]=1 μM, [L]=10 μM (4) A pM value can be calculated for many conditions, but it is generally preferable to calculate it for conditions relevant to biological considerations. […]

The conditions of data set [3]: literature reports; cited from earlier work.
For data set [4] the following is noted: free complex in water, in vitro; cited from earlier work.
The conditions of data set [5]: cited from earlier work.
Another data set concerns rat hepatocytes. The conditions noted are these: cited from earlier work.
Data set [6] addresses human serum albumin (HSA) (Homo sapiens, UniProt P02768). The note with it: cited from earlier work.
Data set [7] can be described thus: Water proton relaxivity (longitudinal relaxation rate, 20 MHz). The conditions noted are these: 37° C. It is filed as physicochemical. The method, then:
The efficacy of a paramagnetic complex as a possible MRI contrast agent depends on its ability to catalyze the nuclear magnetic relaxation rate of solvent protons (Lauffer, R. B., Chem. Rev., 87, 901 (1987); Tweedle, M. F.; Kumar, K. In Magnetic Resonance Imaging (MRI) Contrast Agents; Clarke, M. I., Sadler, P. J., Eds.; Springer: Berlin, Germany, Vol. 2, p. 1 (1999); Koenig et al., Prog. NMR Spectrosc., 22:487 (1990)). This property, which is measured in terms in relaxivity, r1p, is defined as the enhancement of the water proton longitudinal relaxation rate induced by a 1 mML^−1 solution of the paramagnetic compound at a given temperature and magnetic field strength (Aime et al., Chem. Soc. Rev., 27:19 (1998)).
In an exemplary assay, the longitudinal water proton relaxation rate at 20 MHz are measured (typically with a NMR spectrometer operating at 0.5 T) with a reproducibility of the T1 data to ±0.5%. Equipment for the control of temperature (with an accuracy of ±0.1° C.) during these measurements are employed.
Water proton relaxation measurements were carried out at 20 MHz with a Stelar Spinmaster Spectrometer (Mede, Pv, Italy) on 0.5-2 mM solutions of the Gd(III) complex. Spin-lattice relaxation times T1 were measured by the standard inversion recovery method with typical 90° pulse width of […], 16 experiments of 4 scans. The reproducibility of the data is ±1%. The temperature was controlled by a Stelar VTC-91 air-flow heater equipped with copper-constantan thermocouple (uncertainty ±0.1° C). The 1/T1 nuclear magnetic relaxation dispersion (NMRD) profiles of water protons were measured from 0.00024 to 1.2 T (corresponding to the range 0.01-50 MHz of proton Larmor frequencies) at 15, 25 and 39° C. using 1.5 mM solutions of the complex on the field-cycling Koenig-Brown relaxometer of the University of Torino (Italy). The temperature was controlled by circulating freon from an external bath and measured by a thermometer inserted into the freon close to the sample. The reproducibilities of the measured T1 values were estimated to be ±2%. […]

Data set [8] can be described thus: Ligand protonation constants (potentiometric titration). The data set is classed as physicochemical. The method, then:
The protonation constants for chelates of the invention are readily determined by potentiometric titrations. These constants are defined by eq 2:
As previously reported, (Turowski et al., Inorg. Chem., 27:474 (1988)) potentiometric titrations were performed using an automated apparatus consisting of a Accumet pH meter (models 925, 825MP or 15), a pH electrode (Orion Ross semi-micro combination, Cole Parmer semi-micro combination or Corning high performance combination electrodes), an autoburet (Metrohm 665 Dosimat or 702 SM Titrino) fitted with a 5 mL piston exchange unit and a jacketed Ar swept titration cell maintained at 25.0° C. by a Lauda K-2/R or Neslab RTE-111 constant temperature circulating bath. The electronic systems were integrated for automated collection with an IBM PC clone.
In this study, ligand and metal complex solutions were titrated from low to high pH and back again if possible. Titrations for the Zn/HOPY systems were not reversible, presumably due to the formation of mixed ML hydroxide complexes. […] Formation constants calculated from the potentiometric titration data were determined with the aid of a FORTRAN non-linear least-squares refinement program (BETA 90). […] Although this is a low concentration for potentiometric titrations, the buffer regions corresponding to the protonation steps are around neutral pH, and so could still be determined.

For data set [9] the following is noted: literature; cited from earlier work.
The subject of another data set is mice. The note with it: cited from earlier work.

Chain of human serum albumin (HSA) (P02768 25-609): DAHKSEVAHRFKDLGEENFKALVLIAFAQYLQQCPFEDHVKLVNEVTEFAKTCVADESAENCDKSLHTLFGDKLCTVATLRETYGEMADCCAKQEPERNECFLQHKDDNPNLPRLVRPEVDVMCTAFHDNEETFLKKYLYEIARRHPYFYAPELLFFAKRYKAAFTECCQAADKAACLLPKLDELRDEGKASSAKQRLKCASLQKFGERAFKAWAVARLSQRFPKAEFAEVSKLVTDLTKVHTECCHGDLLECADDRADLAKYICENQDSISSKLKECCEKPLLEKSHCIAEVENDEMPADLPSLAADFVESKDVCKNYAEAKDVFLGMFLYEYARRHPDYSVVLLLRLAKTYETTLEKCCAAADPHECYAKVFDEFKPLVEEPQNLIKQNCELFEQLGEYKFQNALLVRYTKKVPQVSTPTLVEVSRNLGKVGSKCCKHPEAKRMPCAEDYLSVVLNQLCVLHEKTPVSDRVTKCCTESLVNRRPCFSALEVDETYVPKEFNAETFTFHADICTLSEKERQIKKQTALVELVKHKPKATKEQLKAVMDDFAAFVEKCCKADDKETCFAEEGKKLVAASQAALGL

For `Cn1ccc(C(=O)NCCN(CCNC(=O)c2ccn(C)c(=O)c2O)CCNC(=O)c2ccn(C)c(=O)c2O)c(O)c1=O` [Formula 7, tris[(3-hydroxy-1-methyl-2-oxo-1,2-didehydropyridine-4-carboxamido)ethyl]amine], in data set [1], the “Water Solubility (pH 7, 25° C.)” value is listed as 0.1 mM. Further, the “pH range over which speciation in water is unchanged” value in data set [2] (calculated for 1 μM Gd and 10 μM ligand (FIG. 5)) is on record as 5.5-10. Moreover, the “solubility in water of the Gd(III) complex” value in data set [3] is given as “about 0.1 mM”.
Take `O=C([O-])CN(CCN(CC(=O)[O-])CC(=O)[O-])CCN(CC(=O)[O-])C(COCc1ccccc1)C(=O)[O-].[Gd+3]` (stereo not drawn) [Gd-BOPTA]: the relaxivity in water in data set [4] was 4.4 mM⁻¹ s⁻¹. In addition, the “relaxivity in rat plasma” value in data set [5] is 6.9 mM⁻¹ s⁻¹. For the same compound, the “relaxivity in rat hepatocytes” value with rat hepatocytes was 30 mM⁻¹ s⁻¹.
In the case of `O=C([O-])CN(CCN(CC(=O)[O-])C[C@H](COP(=O)([O-])OC1CCC(c2ccccc2)(c2ccccc2)CC1)N(CC(=O)[O-])CC(=O)[O-])CC(=O)[O-].[Gd+3].[H+].[H+].[H+]` [MS-325], in data set [4], the relaxivity in water is 6.6 mM⁻¹ s⁻¹. Moreover, the “relaxivity of the HSA adduct” value in [6] was 42.0 mM⁻¹ s⁻¹.
Consider `Cn1ccc(C(=O)NCCN(CCNC(=O)c2ccn(C)c(=O)c2O)CCNC(=O)c2ccn(C)c(=O)c2O)c(O)c1=O` [TREN-1-Me-HOPO, tris[(3-hydroxy-1-methyl-2-oxo-1,2-didehydropyridine-4-carboxamido)ethyl]amine], for which, in data set [7], the “relaxivity (r1)” value came out at 10.5 mM⁻¹ s⁻¹ and the “relaxivity relative to [Gd(DTPA)(H2O)]” value is reported as around 2.5 times. In addition, in data set [2] (pH 7.4, [Gd]=1 μM, [L]=10 μM), the pGd was 20.3. Moreover, in data set [8], the pKa (commonly the pH at which an ionisable group is half protonated) amounted to 6.12. Besides, in data set [9], the “number of coordinated water molecules (q)” value was 2. In the data set on mice, the toxicity to mice result is listed as “low toxicity”.
Regarding `Cc1nc(C(=O)NCCN(CCNC(=O)c2nc(C)n(C)c(=O)c2O)CCNC(=O)c2nc(C)n(C)c(=O)c2O)c(O)c(=O)n1C` [TREN-HOPY, Tris[(2,3-Dimethyl-5-hydroxy-6-carboxamido-4-pyrimidinone)ethyl]amine], in data set [8], the pKa is given as 6.37.
